Legend:
Format in all cases: cell-based, human
[1] = tested on: T-iPS-T cells; test: Comparison with PBMC feeder: proliferation of T-iPS-T cells; settings: 1 μM added to CD3/CD28 Dynabeads vs PBMC feeder, FIG. 10
Protocol: By using T-iPS-T cells, a proliferation promoting effect was compared by culturing the cells using the following three methods: the same stimulation method as in Example 2 using PBMC feeder, the same stimulation method as in Example 4 using CD3/CD28 Dynabeads, and the same stimulation method as in Example 4 in which berbamine (SIGMA, 547190) at 1 μM was added to CD3/CD28 Dynabeads. The PBMC feeder cells were labeled using CellTrace CFSE Cell Proliferation Kit for Flow Cytometry (CFSE, Invitrogen, 100 nM) in order to discriminate them from T-iPS-T cells, and then, a radiation irradiation treatment was performed.
From the above results, it can be said that the present invention can substitute PBMCs which have been conventionally used for the proliferation of T cells.

[2] = tested on: primary T cells (CD4 T, CD8 T cells); test: Proliferation of primary T cells purified from PBMCs; settings: 1 μM, 6 days, restimulated, further 4 days, FIG. 16
Protocol: The effect of berbamine on proliferation of primary T cells (CD4 T, CD8 T cells) was examined. As a method therefor, CD3 T cells were purified from PBMCs (CTL, Inc.) using Pan T Cell Isolation Kit, human (Miltenyi, 130-096-535). The purified CD3 T cells (20,000 cells/well) were seeded, and berbamine (BBM) at 1 μM or MilliQ water that is a solvent for the compound as a control was added thereto, and the cells were stimulated with CD3/CD28 Dynabeads (60,000 beads/well).
The cells were cultured for 6 days in the same culture medium as in Example 6 and restimulated. After the cells were further cultured for 4 days, the number of viable cells was counted by a trypan blue method and the ratios of CD4-positive cells and CD8-positive cells were analyzed by FACS. […]
After washing, the cells were resuspended in 200 μL/well of the staining solution containing PI. The suspension in an amount of 100 μL/well was analyzed using a BD LSR Fortessa cytometer (BD Bioscience) equipped with HTS, and all cells were recorded.
The value obtained by multiplying the positive rate of CD8(+) or CD4(+) cells in the PI-negative cell population analyzed by FlowJo 9 by the number of viable cells was defined as the number of CD8-positive cells or the number of CD4-positive cells. […]

[3] = tested on: regulatory T cells (Treg); test: Proliferation of regulatory T cells (number of FoxP3-positive cells); settings: 1 μM, 6 days, CD3 T cells of 3 healthy donors, FIG. 17
Protocol: The usefulness of berbamine (BBM) in the proliferation of regulatory T cells (Treg) was verified. As a method therefor, CD3 T cells were purified from PBMCs (CTL, Inc.) derived from 3 healthy donor subjects in the same manner as in additional Example 6 and cultured for 6 days. After culturing for 6 days, the number of viable cells was counted by a trypan blue method and the ratio of CD25(+)FoxP3(+) cells was analyzed by FACS.
In the FACS, the cultured cells were sorted into facs tubes, washed with a staining solution (PBS containing 2% FBS), and then stained with CD3-APC (BioLegend, 300421), CD4-BV510 (BioLegend, 317444), CD8-Pacific Blue (BD 558207), and CD25-FITC (BioLegend, 302604).
After the cells were further washed, intracellular staining was performed using FoxP3/Transcription Factor Staining Buffer Set (eBioscience, 00-5523) and FoxP3-PE (eBioscience, 12-4776-41), and measurement was performed using a BD LSRFortessa cytometer (BD Bioscience).
The value obtained by multiplying the positive rate of FoxP3(+) cells in the CD4(+) cells analyzed by FlowJo 9 by the number of viable cells was defined as the number of FoxP3-positive cells.

[4] = tested on: stem cell memory T cells; test: Proliferation of sorted stem cell memory T cells, trypan blue count; settings: 1 μM, stem cell memory T cells, 6, 9, 12 and 14 days, FIG. 18C
Excerpt: NPL 4 reports that hierarchy exists in T cells (FIG. 18A). In this Example, a fraction in which berbamine acts in T cells was verified. As a method therefor, PBMCs (CTL, Inc.) derived from a healthy subject was washed with a staining solution (PBS containing 2% FBS), and then stained with CCR7-APC (BioLegend, 353214), CD45RA-BV510 (BioLegend, 304142), CD45RO-APC-Cy7 (BioLegend, 307228), CD95-PC-Cy7 (BioLegend, 305622), CD8β-PE (Beckman, IM2217U), and CD4-BV421 (BioLegend, 317434).
After washing, the cells were resuspended in the staining solution containing PI, and by using BD AriaII Cell Sorter (BD Bioscience), in the CD8β(+) cells, CCR7(+)CD45RA(+)CD95(−)CD45RO(−) was sorted as naive T cells, CCR7(+)CD45RA(+)CD95(+)CD45RO(+) was sorted as stem cell memory T cells, CCR7(+)CD45RA(−)CD45RO(+) was sorted as central memory T cells, and CCR7(−) CD45RA(−)CD45RO(+) was sorted as effector memory T cells.
The respective cells (about 3,000 cells/well) were seeded, and berbamine (BBM) at 1 μM or MilliQ water that is a solvent for the compound as a control was added thereto, and the cells were stimulated with CD3/CD28 Dynabeads (about 9,000 beads/well). The cells were cultured using the same culture medium as in Example 6.
After 6, 9, 12, and 14 days of culturing, the number of viable cells was counted by a trypan blue method. In a statistical analysis, a Student's t-test was used (*: p<0.05).

## COc1cc2c3cc1Oc1c(OC)c(OC)cc4c1[C@@H](Cc1ccc(O)c(c1)Oc1ccc(cc1)C[C@@H]3N(C)CC2)N(C)CC4 [berbamine]
[1]
  number of undifferentiated cells compared with the presence of feeder cells: comparable results
  number of viable cells compared with the presence of feeder cells: significant increase in the number of viable cells
[2]
  number of CD4-positive cells compared with MilliQ water: significant enhancement of cell proliferation
  number of CD8-positive cells compared with MilliQ water: significant enhancement of cell proliferation
[3]
  number of FoxP3-positive cells compared with MilliQ water: increase in the number of FoxP3-positive cells
[4]
  number of viable cells compared with MilliQ water: significant enhancement of cell proliferation
